Experimental data: US5358946A, “Heterocycle-substituted amides, carbamates and ureas as agents for the treatment of atherosclerosis” (The Du Pont Merck Pharmaceutical Company, priority 1992, dated 1994)

target: T1, acyl-CoA: cholesterol acyltransferase (ACAT) (Rattus norvegicus, UniProt Q7TQM4); experiment: Inhibition of Acyl-CoA: Cholesterol Acyltransferase (ACAT) in hepatic microsomes (in vitro hepatic ACAT activity); format: biochemical, rat (male Sprague Dawley); details: 14C-oleoyl-CoA, 15 min preincubation at 37° C., pH 7.4, read-out: Inhibition of Cholesterol Esterification (IC50)
T1 construct: Microsomes were obtained by differential centrifugation; from tissue; host or cells: liver microsomes of male Sprague Dawley rats
T1 sequence (Q7TQM4 1-524): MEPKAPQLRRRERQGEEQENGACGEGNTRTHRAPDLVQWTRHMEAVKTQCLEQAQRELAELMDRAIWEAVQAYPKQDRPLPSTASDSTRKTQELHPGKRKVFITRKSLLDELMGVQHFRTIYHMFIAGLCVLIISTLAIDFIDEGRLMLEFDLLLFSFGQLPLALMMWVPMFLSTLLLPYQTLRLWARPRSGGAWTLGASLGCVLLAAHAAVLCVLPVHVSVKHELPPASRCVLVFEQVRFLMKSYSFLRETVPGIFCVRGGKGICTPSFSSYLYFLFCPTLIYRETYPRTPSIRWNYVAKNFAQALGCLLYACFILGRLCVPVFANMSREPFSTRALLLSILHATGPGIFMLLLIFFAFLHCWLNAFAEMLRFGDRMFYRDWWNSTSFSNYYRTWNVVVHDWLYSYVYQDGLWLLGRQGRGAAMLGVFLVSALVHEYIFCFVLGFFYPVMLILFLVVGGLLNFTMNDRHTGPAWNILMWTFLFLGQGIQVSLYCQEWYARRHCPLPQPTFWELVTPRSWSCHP
Procedure: The ability of the compounds to inhibit ACAT, the enzyme responsible for the intracellular synthesis of cholesteryl esters, was tested as follows. Male Sprague Dawley rats weighing 150-300 g, were fed rat chow ad libitum. The animals were fasted for twenty-four hours prior to being sacrificed by decapitation. The livers were perfused in situ with 50 ml of cold 0.25M sucrose, excised, and homogenized in three volumes of 0.1M phosphate buffer, pH 7.4, that contained 0.5 mM EDTA (ethylenediaminetetraacetic acid), 1.0 mM glutathione, 0.25M sucrose and […]. Microsomes were obtained by differential centrifugation; the supernatant from an initial spin at 15,000×g for 15 minutes was centrifuged at 105,000×g for 1 hour to pellet the microsomes. The microsomes were suspended in homogenization buffer, reisolated by centrifugation, and stored at -70° C. Microsomes were used within one month of preparation.
The control assay in a final volume of 200 μl consisted of 200 μg of microsomal protein, 75μ<^14 C-oleoyl-CoA (10,000 dpm/nmol) in 0.1M phosphate, pH 7.4, that contained 1 mM glutathione. Compounds were added in 5 μl of DMSO (dimethyl sulfoxide) and additional controls were run with DMSO only. All components, except the oleoyl-CoA, were preincubated for 15 min. at 37° C. prior to the initiation of the reaction by the addition of oleoyl-CoA. The assay was terminated after 10 min. by the addition of 4 ml of chloroform:methanol (2:1, v/v). 20,000 dpm of 3H-choledsteryl oleate and 10 μg of unlabeled cholesteryl oleate and oleic acid were added as an internal standard and carriers, respectively. After allowing 10 min. for lipid extraction, 0.8 ml of deionized water was added to separte the solution into two phases. The lower chloroform phase was collected, dried under nitrogen and resuspended in 2 ml of hexane:diethyl ether (97:3 v/v). The lipids were then loaded onto BAKERSBOND spe* silica gel columns. Extracts were collected in scintillation vials and counted for radioactivity. The specific activity of ACAT in the control incubation averaged 260 pmol/min/mg microsomal protein.

CCCCCCCN(CCOC(=O)CSc1nc(-c2ccc(OC)cc2)c(-c2ccc(OC)cc2)[nH]1)C(=O)Nc1ccc(F)cc1F [Example 422, N-[2-[2-(4,5-bis(4-methoxyphenyl)-1H-imidazol-2-ylthio)-acetoxy]-ethyl]-N'-(2,4-diflurophenyl)-N -heptyl-urea] and CCCCCCCN(CCNC(=O)CSc1nc(-c2ccc(OC)cc2)c(-c2ccc(OC)cc2)[nH]1)C(=O)Nc1ccc(F)cc1F [Example 432] are within 1.5-fold of each other in IC50: 2600 nM for the first, 3750 nM for the second.

Compared with CCCN(CCOC(=O)CSc1nc(-c2ccccc2)c(-c2ccccc2)[nH]1)C(=O)Nc1ccc(F)cc1F [Example 421], CCCCN(C)CCN(CCOCCSc1nc(-c2ccc(OC)cc2)c(-c2ccc(OC)cc2)[nH]1)C(=O)Nc1ccc(F)cc1F [Example 32, N-[2-(2-(4,5-bis(4-methoxyphenyl)-1H-imidazol-2-ylthio)ethoxy)ethyl]-N-[2-(N-butyl-N-methylamino)ethyl]-N'-(2,4-difluorophenyl) urea] is 2.7-fold lower in IC50: 4100 nM for the first, 1500 nM for the second. The second is the more potent here.

target: T2, ACAT (Mus musculus, UniProt Q61263); experiment: Inhibition of cholesterol esterification in the murine macrophage-like cell line J774.A1; format: cell-based; details: J774.A1 cells, ac-LDL loaded, 14C-oleic acid pulse
T2 construct: endogenous in cells; host or cells: J774.A1 (murine macrophage-like)
T2 sequence (Q61263 1-540): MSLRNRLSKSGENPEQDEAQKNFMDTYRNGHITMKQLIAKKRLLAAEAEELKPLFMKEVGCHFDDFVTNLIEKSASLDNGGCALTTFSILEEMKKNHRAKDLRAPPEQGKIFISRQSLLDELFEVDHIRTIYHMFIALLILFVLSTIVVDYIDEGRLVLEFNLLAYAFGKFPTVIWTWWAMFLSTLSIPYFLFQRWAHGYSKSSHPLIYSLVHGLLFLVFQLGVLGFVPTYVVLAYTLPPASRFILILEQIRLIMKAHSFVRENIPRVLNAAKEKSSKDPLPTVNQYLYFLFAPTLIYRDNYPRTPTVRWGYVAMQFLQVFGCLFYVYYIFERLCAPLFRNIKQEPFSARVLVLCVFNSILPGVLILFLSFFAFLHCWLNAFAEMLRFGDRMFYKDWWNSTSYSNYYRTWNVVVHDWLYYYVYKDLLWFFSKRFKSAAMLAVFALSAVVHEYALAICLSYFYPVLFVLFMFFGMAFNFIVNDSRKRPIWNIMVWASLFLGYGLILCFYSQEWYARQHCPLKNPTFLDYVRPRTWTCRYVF
Procedure: The esterification of cholesterol was determined in the murine macrophage-like cell line J774.A1. Cells were seeded in 35 mm wells at a density of 300,000 cells per well in 2 mls of Dulbecco's Eagle Medium (DMEM) supplemented with 10% fetal bovine serum (FBS). Cells were incubated at 37° C. in an atmosphere of 5% CO2 and 93% humidity. After […] the media was changed to 0.68 mls 10% FBS-DMEM containing 34 μg of acetylated human low density lipoprotein (ac-LDL) to increase the intracellular concentration of cholesterol and promote esterification. At 41 hours, various inhibitors were added to the cells in DMSO (10 μl/ml maximum). At 43 hours, the cells were pulsed with 0.1 mM ^14 C-oleic acid (10,000 dpm/nmol) complexed with BSA (bovine serum albumin) to follow cholesterol ester formation. The experiment was terminated at 45 hours by washing the monolayers 3 times with 3 ml of Tris-buffered saline at 4° C. The lipids were extracted by incubating the monolayers with 1.5 ml of hexane: isopropanol (3:2, v/v) for 30 min. under gentle agitation. During this period, 10,000 dpm ^3 H-cholesterol oleate and 10 μg of unlabeled cholesteryl oleate, oleic acid, triolein and cholesterol were added as an […] standard and carriers. The organic solvent was removed and the cells were washed with an additional 1.0 ml of hexane: isopropanol which was combined with the original extract. The cells were allowed to dry overnight, digested with 2.0 ml of 0.2N sodium hydroxide for 1 hour and an aliquot of the solubilized protein used for protein determination using the Lowry method. […] Extracts were collected in scintillation vials to determine the amount of radioactivity. The conversion of oleic acid to cholesteryl ester in the control averaged 0.54 mmol/hour/mg protein and was increased upon the addition of ac-LDL to about 10.689±0.69 mmol/hour/mg protein.

First: CCCCCCCN(CCOC(=O)CSc1nc(-c2ccc(OC)cc2)c(-c2ccc(OC)cc2)[nH]1)C(=O)Nc1ccc(F)cc1F [Example 422, N-[2-[2-(4,5-bis(4-methoxyphenyl)-1H-imidazol-2-ylthio)-acetoxy]-ethyl]-N'-(2,4-diflurophenyl)-N -heptyl-urea]
Second: CCCCCCCN(CCNC(=O)CSc1nc(-c2ccc(OC)cc2)c(-c2ccc(OC)cc2)[nH]1)C(=O)Nc1ccc(F)cc1F [Example 432]
The IC50 of the first is 3-fold higher: 2390 nM for the first, 800 nM for the second.

Going from CCCCOCCN(CCCCCSc1nc(-c2ccccc2)c(-c2ccccc2)[nH]1)C(=O)Nc1ccc(F)cc1F [Example 261, N-(2-butoxyethyl)-N'-(2,4-difluorophenyl)-N-[5-(4,5-diphenyl-1H-imidazol-2-ylthio)pentyl]-urea] to CCCCCCCN(CCOCCSc1nc(-c2ccccc2)c(-c2ccccc2)[nH]1)C(=O)Nc1ccc(F)cc1F [Example 361], the IC50 rises from 1750 nM to 3980 nM (2.3-fold).

Compared with CCCN(CCOC(=O)CSc1nc(-c2ccccc2)c(-c2ccccc2)[nH]1)C(=O)Nc1ccc(F)cc1F [Example 421], O=C(Nc1ccc(F)cc1F)N(CCCCCSc1nc(-c2ccccc2)c(-c2ccccc2)[nH]1)CCOCCO [Example 281] is 1.8-fold higher in IC50: 3680 nM for the first, 6740 nM for the second.

Going from COc1ccc(-c2nc(SCCCCCN(CCOCCO)C(=O)Nc3ccc(F)cc3F)[nH]c2-c2ccc(OC)cc2)cc1 [Example 283, N-[5-[4,5-bis(4-methoxyphenyl)-1H-imidazol-2-ylthio]pentyl]-N '-(2,4-difluorophenyl)-N-[2-(2-hydroxyethoxy)ethyl]-urea] to COCCOCCN(CCCCCSc1nc(-c2ccc(OC)cc2)c(-c2ccc(OC)cc2)[nH]1)C(=O)Nc1ccc(F)cc1F [Example 303, N-[5-[4,5-bis(4-methoxyphenyl)-1H-imidazol-2-ylthio]pentyl]-N '-(2,4-difluorophenyl)-N-[2-(2-methoxyethoxy)ethyl]-urea], the IC50 falls from 840 nM to 250 nM (3.4-fold). The second is the more potent here.

Going from CCOCCOCCN(CCCCCSc1nc(-c2ccccc2)c(-c2ccccc2)[nH]1)C(=O)NC(C)C [Example 322] to CCCCOCCN(CCCCCSc1nc(-c2ccccc2)c(-c2ccccc2)[nH]1)C(=O)NC(C)C [Example 262, N-(2-butoxyethyl)-N-[5-(4,5-diphenyl-1H-imidazol-2-ylthio)pentyl]-N'-(1-methylethyl)-urea], the IC50 falls from 3020 nM to 840 nM (3.6-fold).

Compared with CCN(CC)CCN(CCCCCSc1nc(-c2ccccc2)c(-c2ccccc2)[nH]1)C(=O)NC(C)C [Example 1, N-[2-(diethylamino)ethyl]-N-[5-(4,5-diphenyl-1H-imidazol-2-ylthio)pentyl]-N'-(1-methylethyl)-urea], CCCCCCCN(CCN(C)CCSc1nc(-c2ccccc2)c(-c2ccccc2)[nH]1)C(=O)NC(C)C [Example 102] is 4.1-fold higher in IC50: 580 nM for the first, 2400 nM for the second.

First: CC(C)NC(=O)N(CCCCCSc1nc(-c2ccccc2)c(-c2ccccc2)[nH]1)CCOCCO [Example 282, N-[5-(4,5-diphenyl-1H-imidazol-2-ylthio)-pentyl]-N-[2-(2-hydroxyethoxy)-ethyl]-N'-(1-methylethyl)-urea]
Second: CCCCCCCN(CCOCCSc1nc(-c2ccccc2)c(-c2ccccc2)[nH]1)C(=O)NC(C)C [Example 362]
The IC50 of the first is 6.9-fold higher: 6840 nM for the first, 990 nM for the second.

CCCCCCCN(CCOCCSc1nc(-c2ccc(OC)cc2)c(-c2ccc(OC)cc2)[nH]1)C(=O)Nc1ccc(F)cc1F [Example 364] and CCCCN(C)CCN(CCOCCSc1nc(-c2ccc(OC)cc2)c(-c2ccc(OC)cc2)[nH]1)C(=O)Nc1ccc(F)cc1F [Example 32, N-[2-(2-(4,5-bis(4-methoxyphenyl)-1H-imidazol-2-ylthio)ethoxy)ethyl]-N-[2-(N-butyl-N-methylamino)ethyl]-N'-(2,4-difluorophenyl) urea] are within 1.5-fold of each other in IC50: 500 nM for the first, 630 nM for the second.

Compared with COCCOCCN(CCCCCSc1nc(-c2ccc(OC)cc2)c(-c2ccc(OC)cc2)[nH]1)C(=O)NC(C)C [Example 304, N-[5-[4,5-bis(4-methoxyphenyl)-1H-imidazol-2-ylthio]-pentyl]-N-[2-(2-methoxyethoxy)-ethyl]-N'-(1-methylethyl)-urea], CCOCCOCCN(CCCCCSc1nc(-c2ccc(SC)cc2)c(-c2ccc(SC)cc2)[nH]1)C(=O)NC(C)C [Example 325] is 8.8-fold lower in IC50: 360 nM for the first, 41 nM for the second.

Compared with CC(C)NC(=O)N(CCN(C)CCSc1nc(-c2ccccc2)c(-c2ccccc2)[nH]1)CCN1CCOCC1 [Example 183], CN(CCSc1nc(-c2ccccc2)c(-c2ccccc2)[nH]1)CCN(CCN1CCOCC1)C(=O)Nc1ccc(F)cc1F [Example 181] is 2.3-fold lower in IC50: 6280 nM for the first, 2740 nM for the second.

Compared with CCOCCOCCN(CCCCCSc1nc(-c2ccccc2)c(-c2ccccc2)[nH]1)C(=O)Nc1ccc(F)cc1F [Example 321], CCN(CC)CCN(CCCCCSc1nc(-c2ccccc2)c(-c2ccccc2)[nH]1)C(=O)Nc1ccc(F)cc1F [Example 2] is 1.8-fold lower in IC50: 4010 nM for the first, 2180 nM for the second. The second is the more potent here.

COc1ccc(-c2nc(SCCCCCN(CCN3CCOCC3)C(=O)Nc3ccc(F)cc3F)[nH]c2-c2ccc(OC)cc2)cc1 [Example 162, N-[5-[4,5-bis(4-methoxyphenyl)-1H-imidazol-2-ylthio]pentyl]-N'-(2,4-difluorophenyl)-N-[2-(1-morpholinyl)ethyl]-urea] and CCCCCCCN(CCN(C)CCSc1nc(-c2ccccc2)c(-c2ccccc2)[nH]1)C(=O)Nc1ccc(F)cc1F [Example 101, N'-(2,4-difluorophenyl)-N-[2-[2-(4,5-diphenyl-1H-imidazol-2-ylthio)ethyl]-N-[methylamino]ethyl]-N-heptyl-urea] are within 1.5-fold of each other in IC50: 1340 nM for the first, 1470 nM for the second.
